± gives the standard deviation of the averaged measurements.
Columns and labels:
HL-60 [1] = assay: cell viability (% survival relative to DMSO control); higher = less cytotoxic; settings: 72 h
Summary of the method: (§1)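 For each screen, HL-60 cells in RPMI 1640 with 10% FBS carried either DMSO or 100 nM of one of three metabolic inhibitors while the full library was applied at five tenfold concentrations, 1–10,000 nM, in duplicate. Plates were 384-well and were kept 72 h at 37 °C, 5% CO2. Viability, measured by CellTiter-Glo, was normalised to wells with DMSO and with 10 μM proteasome inhibitor. Where area under the curve appears, it was fitted by four-parameter log-logistic models in drc and PharmacoGx.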

HL-60 [2] = assay: area under dose-response curve (viability, 1 nM-10 uM) (fraction (0-1)); higher = more sensitive; settings: 72 h
Summary of the method: as §1

[3] = 0.001 µM, co-treatment: AZD3965 100 nM
[4] = 0.001 µM, co-treatment: DMSO vehicle
[5] = 0.001 µM, co-treatment: GSK2194069 100 nM
[6] = 0.001 µM, co-treatment: pictilisib 100 nM
[7] = 0.01 µM, co-treatment: AZD3965 100 nM
[8] = 0.01 µM, co-treatment: DMSO vehicle
[9] = 0.01 µM, co-treatment: GSK2194069 100 nM
[10] = 0.01 µM, co-treatment: pictilisib 100 nM
[11] = 0.1 µM, co-treatment: AZD3965 100 nM
[12] = 0.1 µM, co-treatment: DMSO vehicle
[13] = 0.1 µM, co-treatment: GSK2194069 100 nM
[14] = 0.1 µM, co-treatment: pictilisib 100 nM
[15] = 1 µM, co-treatment: AZD3965 100 nM
[16] = 1 µM, co-treatment: DMSO vehicle
[17] = 1 µM, co-treatment: GSK2194069 100 nM
[18] = 1 µM, co-treatment: pictilisib 100 nM
[19] = 10 µM, co-treatment: AZD3965 100 nM
[20] = 10 µM, co-treatment: DMSO vehicle
[21] = 10 µM, co-treatment: GSK2194069 100 nM
[22] = 10 µM, co-treatment: pictilisib 100 nM
[23] = co-treatment: GSK2194069 100 nM
[24] = co-treatment: pictilisib 100 nM

| Structure (SMILES) | cell viability (HL-60 [1]; [3]) | cell viability (HL-60 [1]; [4]) | cell viability (HL-60 [1]; [5]) | cell viability (HL-60 [1]; [6]) | cell viability (HL-60 [1]; [7]) | cell viability (HL-60 [1]; [8]) | cell viability (HL-60 [1]; [9]) | cell viability (HL-60 [1]; [10]) | cell viability (HL-60 [1]; [11]) | cell viability (HL-60 [1]; [12]) | cell viability (HL-60 [1]; [13]) | cell viability (HL-60 [1]; [14]) | cell viability (HL-60 [1]; [15]) | cell viability (HL-60 [1]; [16]) | cell viability (HL-60 [1]; [17]) | cell viability (HL-60 [1]; [18]) | cell viability (HL-60 [1]; [19]) | cell viability (HL-60 [1]; [20]) | cell viability (HL-60 [1]; [21]) | cell viability (HL-60 [1]; [22]) | area under dose-response curve (HL-60 [2]; co-treatment: AZD3965 100 nM) | area under dose-response curve (HL-60 [2]; co-treatment: DMSO vehicle) | area under dose-response curve (HL-60 [2]; [23]) | area under dose-response curve (HL-60 [2]; [24]) |
| --- | --- | --- | --- | --- | --- | --- | --- | --- | --- | --- | --- | --- | --- | --- | --- | --- | --- | --- | --- | --- | --- | --- | --- | --- |
| C#CCN[C@@H]1CCc2ccccc21 [Rasagiline] | 102 ± 5.7% | 101 ± 1.1% | 105 ± 1.6% | 89.6 ± 3.1% | 96.6 ± 9.6% | 102 ± 4.3% | 107 ± 4.2% | 87.5 ± 12% | 100 ± 11% | 102 ± 1.8% | 100 ± 6.3% | 103 ± 14% | 97.1 ± 1.7% | 100.1 ± 0.11% | 102 ± 6.4% | 95.6 ± 7.2% | 99.9 ± 1.6% | 95.4 ± 3% | 99.9 ± 4% | 102 ± 1.2% | < 0.0301 | < 0.0301 | < 0.0301 | < 0.0301 |
| CC1Cc2ccccc2N1NC(=O)c1ccc(Cl)c(S(N)(=O)=O)c1 (configuration not stated) [Indapamide] | 103 ± 4.1% | 98.1 ± 3.9% | 103.4 ± 0.98% | 100 ± 10% | 104 ± 2% | 104 ± 4.2% | 107.5 ± 0.58% | 112 ± 10% | 99.4 ± 5.3% | 101 ± 1.1% | 94.7 ± 4.5% | 97.14 ± 0.93% | 103.1 ± 0.94% | 99.5 ± 3.2% | 98.3 ± 8.1% | 92.8 ± 8.5% | 95.9 ± 1.7% | 103.2 ± 0.48% | 99.6 ± 4.5% | 98.4 ± 2.1% | < 0.0301 | < 0.0301 | < 0.0301 | < 0.0301 |
| O[C@H]1[C@H](O)[C@@H](O)CN2CC[C@H](O)[C@H]12 [Castanospermine] | 97.9 ± 2.2% | 98 ± 6.5% | 77.1 ± 28% | 108 ± 6.9% | 97.5 ± 4.8% | 100.5 ± 0.15% | 91.1 ± 24% | 106 ± 12% | 104 ± 3.5% | 96.8 ± 3% | 103 ± 3.5% | 89.4 ± 14% | 101 ± 8% | 98.7 ± 4.9% | 94.2 ± 4.3% | 92.4 ± 2% | 101 ± 3.6% | 101 ± 1.6% | 99.09 ± 0.95% | 99.9 ± 2.1% | < 0.0301 | < 0.0301 | < 0.0301 | < 0.0301 |
| Cc1[nH]n(-c2ccccc2)c(=O)c1C1(C(F)(F)F)C(=O)N(c2ccccc2)C2=C1C(=O)CC(C)(C)C2 (configuration not stated) | 101.7 ± 0.96% | 99.8 ± 1.2% | 98.536 ± 0.016% | 97.2 ± 3.1% | 100.9 ± 0.63% | 100 ± 1.6% | 106 ± 5% | 95.5 ± 1% | 107 ± 1.1% | 102 ± 4.3% | 105 ± 1.4% | 101 ± 2.9% | 98.5 ± 2.6% | 102 ± 1.6% | 100.4 ± 0.11% | 102 ± 8.8% | 102 ± 9.5% | 102 ± 3.6% | 97.8 ± 4.5% | 104 ± 3% | < 0.0301 | < 0.0301 | < 0.0301 | < 0.0301 |
| CCCCCCCNC=O [N-Heptyl-Formamide] | 104.63 ± 0.079% | 101.3 ± 0.22% | 99.7 ± 2.1% | 99.8 ± 14% | 106 ± 12% | 78.3 ± 35% | 103 ± 2.5% | 108 ± 15% | 98 ± 6.2% | 98.6 ± 5% | 99.6 ± 2.1% | 78.6 ± 23% | 95 ± 12% | 97.7 ± 4.5% | 97.7 ± 8.2% | 102 ± 4.4% | 97.3 ± 4.2% | 101 ± 2.9% | 94 ± 2.8% | 100 ± 6.2% | < 0.0301 | < 0.0301 | < 0.0301 | < 0.0301 |
| OCCN1C[C@H](O)[C@@H](O)[C@H](O)[C@H]1CO [Miglitol] | 100.7 ± 0.68% | 96 ± 3.3% | 99.52 ± 0.9% | 97.8 ± 6.1% | 103.6 ± 0.14% | 101 ± 2.5% | 109 ± 3% | 104 ± 3.2% | 94.8 ± 14% | 96.3 ± 4.1% | 91.7 ± 16% | 86.9 ± 14% | 102 ± 2.9% | 94.9 ± 8.1% | 97.8 ± 7.8% | 98.1 ± 6.2% | 100.28 ± 0.095% | 99.54 ± 0.43% | 109 ± 7.6% | 106 ± 1.8% | < 0.0301 | < 0.0301 | < 0.0301 | < 0.0301 |
| COc1ccc2c(c1)c(CC(=O)O)c(C)n2C(=O)c1ccc(Cl)cc1 [Indomethacine] | 94.5 ± 15% | 93.22 ± 0.93% | 88 ± 18% | 90.7 ± 5.6% | 76.1 ± 30% | 91 ± 9.4% | 95.9 ± 5.5% | 87.2 ± 13% | 100 ± 2.1% | 97.19 ± 0.53% | 97.61 ± 0.045% | 93.2 ± 1.9% | 103 ± 1.9% | 101 ± 2.7% | 99.8 ± 6.3% | 97.1 ± 1.1% | 91.6 ± 14% | 100 ± 3% | 89.1 ± 4.4% | 88.4 ± 1.3% | < 0.0301 | < 0.0301 | < 0.0301 | < 0.0301 |
| CC(C)(CS(=O)(=O)[O-])NC(=O)CC[N+](C)(C)CCO | 101 ± 5.7% | 95.9 ± 6.8% | 105 ± 11% | 102 ± 6.8% | 89.5 ± 25% | 98.4 ± 11% | 95.2 ± 10% | 79.9 ± 30% | 116 ± 26% | 107.3 ± 0.43% | 102 ± 1.7% | 107 ± 5% | 122 ± 30% | 106 ± 3.5% | 111 ± 12% | 115 ± 23% | 94.1 ± 3.8% | 100 ± 1.9% | 99.7 ± 2.9% | 99.9 ± 7.4% | < 0.0301 | < 0.0301 | < 0.0301 | < 0.0301 |

— the supplement of paper PMC8671470
